# According to US20240365782A1, “USE OF 2-AMINO-3-METHYLHEXANOIC ACID IN PROMOTING PLANT GROWTH AND INCREASING YIELD” (NANJING AGRICULTURAL UNIVERSITY, priority 2021, published 2024):
# Columns and labels:
# [1] = tested on: Aerobacter aerogenes; details: cited from earlier work
# [2] = tested on: strawberry seedlings; test: Stem and leaf treatment: growth of strawberry seedlings; format: in vivo
# Experimental: (§1) In 2021, an experiment was conducted in a Changshanxiang Mingyang family farm (standard greenhouse nursery base) in Zhangjiagang city, Jiangsu province. A strawberry variety to be tested was Hongyan, a tomato variety was Qianxi, and a hot pepper variety was Sujiao No. 5. 2-amino-3-methylhexanoic acid was taken, dissolved with distilled water, and diluted with the distilled water to obtain a solution of 100 nM (14.5 μg/L), a blank control was additionally set, and 0.02% Tween 20 as a surfactant and 14-hydroxylated brassinosteroid (Sichuan New Sun company) with the concentration of 37.5 μg/L as a control agent were added at the same time. Each treatment was repeated three times, the plot area was 20 m^2, and the liquid injection volume per plot was 1 L. The treatment method was foliage spray, an investigation was conducted on day 9 after the application, and the results were shown in Tables 3-5 and FIG. 3-FIG. 5.
# [3] = tested on: A. ureafaciens; details: cited from earlier work
# [4] = tested on: Bacillus subtilis; details: cited from earlier work
# [5] = tested on: Achromobacter butyri; details: cited from earlier work
# [6] = tested on: S. marcescens; details: cited from earlier work
# [7] = tested on: P. fluorescens; details: cited from earlier work
# [8] = tested on: Escherichia coli K-12; details: cited from earlier work
# [9] = tested on: E. coli B; details: cited from earlier work
# [10] = tested on: tomato seedlings; test: Stem and leaf treatment: growth of tomato seedlings; format: in vivo
# Experimental: as §1
# [11] = tested on: hot pepper seedlings; test: Stem and leaf treatment: growth of hot pepper seedlings; format: in vivo
# Experimental: as §1
# [12] = tested on: Pseudomonas aeruginosa; details: cited from earlier work
# [13] = tested on: Brevibacterium helvolum; details: cited from earlier work
# [14] = tested on: strawberry plants; test: Stem and leaf treatment: growth and yield of mature strawberry plants (field application); format: in vivo; details: for Leaf number / Leaf width / Plant height: mature strawberry plants; for Mass of fruits per plant / Number of fruits per plant: strawberries; for Chlorophyll content: strawberry leaves
# Experimental: 0.1 g of the rice leaves were accurately cut off for measuring the chlorophyll content. The rice leaves were extracted with 10 mL of an acetone ethanol extracting solution (80% acetone: 95% ethanol at a volume ratio of 1:1) for 24 hours in a dark place. A chlorophyll extracting stock solution was diluted by 3 times with the extracting solution as a reference solution, the light density values at wave lengths of 645 nm and 663 nm were measured with a spectrophotometer, and the chlorophyll content was calculated with a modifier formula of an Amnon method.
# On Feb. 27, 2021, an experiment was conducted in a greenhouse of a farm of Baitu town, Jurong city, Jiangsu province, and the strawberry variety to be tested was Hongyan. The 2-amino-3-methylhexanoic acid was taken, dissolved with distilled water, and gradiently diluted with the distilled water to obtain solutions of 1,000 nM and 100 nM, a blank control was additionally set, and 0.02% Tween 20 as a surfactant was added at the same time. Each treatment was repeated three times, the plot area was 100 m^2, and the liquid injection volume per plot was 4.5 L. Three times of field application were conducted on February 27, March 3, and Mar. 8, 2021, respectively. The treatment method was foliage spray. The plant height, the leaf number, the leaf width, the number of fruits per plant, and the mass of fruits per plant were investigated on March 8. 0.2 g of strawberry leaves were cut off at the same time for measuring the chlorophyll content.
# [15] = tested on: cucumber seedlings; test: Hydroponic treatment: rooting of radicle-removed cucumber seedlings; format: in vivo; details: for Lateral root number / Root length: cucumber seedlings, 6 days
# From the text: To further investigate a promoting effect of 2-amino-3-methylhexanoic acid on growth of plant roots, a model system for studying root generation, a radicle-removed cucumber seedling system, was selected. Four layers of wet gauze were spread on a bottom part of a seedling box, and healthy, full and uniform cucumber seeds (variety “Chuxiaqiuguan”, Ningyang County Luming Seed Co., Ltd., Shandong Province) were picked, washed with distilled water, uniformly spread on the gauze, and then covered with four layers of the wet gauze for keeping in a dark place. After kept in a dark place in a 25° C. culture room for 24 hours, the germinated cucumber seeds were taken out and buried in a position 1 cm below the soil, a plurality of plants with consistent growth vigor and completely unfolded two cotyledons were taken after 3 days, the roots were washed with the distilled water, the radicles were cut off, and the plants were fixed with sponge strips and placed in a centrifuge tube box. 400 mL of a 2-amino-3-methylhexanoic acid aqueous solution at concentrations of 0, 10, 100, and 1,000 nM, respectively was added to each box. The hydroponic plants were placed in the 25° C. culture room. After 6 days of light culture, the plants were taken out and the root length and number of newly generated roots were measured and recorded.
# [16] = foliage spray, day 9, 2-amino-3-methylhexanoic acid 100 nM, 14-hydroxylated brassinosteroid 37.5 μg/L
# [17] = foliage spray, day 9, 2-amino-3-methylhexanoic acid 14.5 μg/L (100 nM), 14-hydroxylated brassinosteroid 37.5 μg/L
# [18] = mature strawberry plants, 1,000 nM
compound,measurement,setting,value
CCCC(C)C(N)C(=O)O (stereo not shown) [2-amino-3-methylhexanoic acid],Inhibitory effect,[1],no inhibitory effect
same,Plant height improved compared with 14-hydroxylated brassinosteroid 37.5 μg/L,[2]; 14.5 μg/L,7%
same,Plant height improved compared with the blank control,[2]; 14.5 μg/L,31%
same,Root fresh weight improved compared with 14-hydroxylated brassinosteroid 37.5 μg/L,[2]; 14.5 μg/L,65%
same,Root fresh weight improved compared with the blank control,[2]; 14.5 μg/L,70%
same,Root length improved compared with 14-hydroxylated brassinosteroid 37.5 μg/L,[2]; 14.5 μg/L,24%
same,Root length improved compared with the blank control,[2]; 14.5 μg/L,23%
same,Plant height,[2]; [16],7.00 ± 0.37a cm
same,Root fresh weight,[2]; [16],8.49 ± 0.12a g
same,Root length,[2]; [16],5.79 ± 0.36a cm
same,Inhibitory effect,[3],slight inhibitory effect
same,Inhibitory effect,[4],remarkable inhibitory effect
same,Inhibitory effect,[5],slight inhibitory effect
same,Inhibitory effect,[6],no inhibitory effect
same,Inhibitory effect,[7],no inhibitory effect
same,Inhibitory effect,[8],remarkable inhibitory effect
same,Inhibitory effect,[9],slight inhibitory effect
same,Plant height improved compared with 14-hydroxylated brassinosteroid 37.5 μg/L,[10]; 14.5 μg/L,76%
same,Plant height improved compared with the blank control,[10]; 14.5 μg/L,84%
same,Root fresh weight improved compared with 14-hydroxylated brassinosteroid 37.5 μg/L,[10]; 14.5 μg/L,16%
same,Root fresh weight improved compared with the blank control,[10]; 14.5 μg/L,232%
same,Root length improved compared with 14-hydroxylated brassinosteroid 37.5 μg/L,[10]; 14.5 μg/L,18%
same,Root length improved compared with the blank control,[10]; 14.5 μg/L,38%
same,Plant height,[10]; [17],20.80 ± 0.21a cm
same,Root fresh weight,[10]; [17],4.05 ± 0.07a g
same,Root length,[10]; [17],5.39 ± 0.43a cm
same,Plant height improved compared with 14-hydroxylated brassinosteroid 37.5 μg/L,[11]; 14.5 μg/L,37%
same,Plant height improved compared with the blank control,[11]; 14.5 μg/L,60%
same,Root fresh weight improved compared with 14-hydroxylated brassinosteroid 37.5 μg/L,[11]; 14.5 μg/L,35%
same,Root fresh weight improved compared with the blank control,[11]; 14.5 μg/L,49%
same,Root length improved compared with 14-hydroxylated brassinosteroid 37.5 μg/L,[11]; 14.5 μg/L,7%
same,Root length improved compared with the blank control,[11]; 14.5 μg/L,46%
same,Plant height,[11]; [17],9.32 ± 0.32a cm
same,Root fresh weight,[11]; [17],4.67 ± 0.09a g
same,Root length,[11]; [17],4.53 ± 0.33a cm
same,Inhibitory effect,[12],slight inhibitory effect
same,Inhibitory effect,[13],no inhibitory effect
same,Chlorophyll content improved compared with the blank control,[14]; [18],21%
same,Leaf number improved compared with the blank control,[14]; [18],79%
same,Leaf width improved compared with the blank control,[14]; [18],32%
same,Plant height improved compared with the blank control,[14]; [18],49%
same,Leaf number,[14]; foliage spray 100 nM,22.44 ± 4.32b leaf
same,Leaf width,[14]; foliage spray 100 nM,5.33 ± 0.48b cm
same,Plant height,[14]; foliage spray 100 nM,26.50 ± 3.60b cm
same,Leaf number,"[14]; foliage spray 1,000 nM",26.00 ± 4.76a leaf
same,Leaf width,"[14]; foliage spray 1,000 nM",6.59 ± 1.07a cm
same,Plant height,"[14]; foliage spray 1,000 nM",36.60 ± 3.28a cm
same,Mass of fruits per plant,[14]; foliage spray 100 nM,29.06 ± 0.76b g
same,Number of fruits per plant,[14]; foliage spray 100 nM,8.32 ± 0.47b fruit
same,Mass of fruits per plant,"[14]; foliage spray 1,000 nM",34.47 ± 0.58a g
same,Number of fruits per plant,"[14]; foliage spray 1,000 nM",9.72 ± 0.43a fruit
same,Chlorophyll content,[14]; foliage spray 100 nM,3.50 ± 0.30ab mg/g · FW
same,Chlorophyll content,"[14]; foliage spray 1,000 nM",3.74 ± 0.65a mg/g · FW
same,Mass of fruits per plant improved compared to the blank control,"[14]; strawberry plants, 1,000 nM",44%
same,Number of fruits per plant improved compared to the blank control,"[14]; strawberry plants, 1,000 nM",39%
same,Lateral root number,[15]; hydroponic 10 nM,16.00 ± 1.73a piece
same,Root length,[15]; hydroponic 10 nM,2.04 ± 0.67b cm
same,Lateral root number,[15]; hydroponic 100 nM,19.33 ± 1.53a piece
same,Root length,[15]; hydroponic 100 nM,5.36 ± 0.82a cm
same,Lateral root number,"[15]; hydroponic 1,000 nM",14.33 ± 5.13a piece
same,Root length,"[15]; hydroponic 1,000 nM",4.50 ± 1.28a cm
same,Cucumber root length improved compared with the blank control,[15]; hydroponic 10 nM,33%
same,Number of root generation improved compared with the blank control,[15]; hydroponic 10 nM,182%
same,Cucumber root length improved compared with the blank control,[15]; hydroponic 100 nM,199%
same,Number of root generation (lateral root number) improved compared with the blank control,[15]; hydroponic 100 nM,241%
same,Cucumber root length improved compared with the blank control,"[15]; hydroponic 1,000 nM",154%
same,Number of root generation improved compared with the blank control,"[15]; hydroponic 1,000 nM",153%
